{"source": "paper PMC11233931", "about": "“Remodeling tumor‐associated macrophage for anti‐cancer effects by rational design of irreversible inhibition of mitogen‐activated protein kinase‐activated protein kinase 2” (MedComm, 2024)", "assay_in_all_cases": "Eurofins kinase selectivity profile against 380 other human recombinant kinases (Table S2)", "assay_type_in_all_cases": "biochemical", "key": {"[1]": {"molecular_target": "T1, 380 human recombinant protein kinases (Homo sapiens, UniProt P49759)", "T1 construct": "purchased Eurofins (Celle Lévescault)", "settings": "CLK1(h), read-out: Inhibition rate", "summary_of_the_method": "(§1)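 To gauge specificity for MK2, the compound is profiled externally at various concentrations on recombinant human kinases, 380 in total.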"}, "[2]": {"molecular_target": "T2, 380 human recombinant protein kinases (Homo sapiens, UniProt Q9HCP0)", "T2 construct": "purchased Eurofins (Celle Lévescault)", "settings": "CK1γ1(h), read-out: Inhibition rate", "summary_of_the_method": "as §1"}, "[3]": {"molecular_target": "T3, 380 human recombinant protein kinases (Homo sapiens, UniProt P37173)", "T3 construct": "purchased Eurofins (Celle Lévescault)", "T3 sequence (P37173 23-567)": "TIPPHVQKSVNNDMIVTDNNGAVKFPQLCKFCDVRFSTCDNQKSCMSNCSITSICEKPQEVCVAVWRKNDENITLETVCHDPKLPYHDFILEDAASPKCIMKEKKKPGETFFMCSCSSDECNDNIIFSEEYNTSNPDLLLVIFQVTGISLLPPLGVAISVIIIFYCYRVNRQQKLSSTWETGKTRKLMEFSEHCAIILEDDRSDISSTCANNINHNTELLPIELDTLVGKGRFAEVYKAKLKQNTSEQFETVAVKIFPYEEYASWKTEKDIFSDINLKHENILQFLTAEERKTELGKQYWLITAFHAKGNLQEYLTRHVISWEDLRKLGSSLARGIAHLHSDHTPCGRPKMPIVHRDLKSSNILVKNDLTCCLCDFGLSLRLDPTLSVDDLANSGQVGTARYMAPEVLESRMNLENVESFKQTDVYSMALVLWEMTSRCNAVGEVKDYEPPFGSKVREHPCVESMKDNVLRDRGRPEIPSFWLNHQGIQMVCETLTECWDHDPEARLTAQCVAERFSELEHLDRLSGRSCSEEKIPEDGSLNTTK", "settings": "TGFBR2(h), read-out: Inhibition rate (%)", "summary_of_the_method": "as §1"}, "[4]": {"molecular_target": "T4, 380 human recombinant protein kinases (Homo sapiens, UniProt Q13535)", "T4 construct": "purchased Eurofins (Celle Lévescault)", "T4 sequence (Q13535 whole entry)": "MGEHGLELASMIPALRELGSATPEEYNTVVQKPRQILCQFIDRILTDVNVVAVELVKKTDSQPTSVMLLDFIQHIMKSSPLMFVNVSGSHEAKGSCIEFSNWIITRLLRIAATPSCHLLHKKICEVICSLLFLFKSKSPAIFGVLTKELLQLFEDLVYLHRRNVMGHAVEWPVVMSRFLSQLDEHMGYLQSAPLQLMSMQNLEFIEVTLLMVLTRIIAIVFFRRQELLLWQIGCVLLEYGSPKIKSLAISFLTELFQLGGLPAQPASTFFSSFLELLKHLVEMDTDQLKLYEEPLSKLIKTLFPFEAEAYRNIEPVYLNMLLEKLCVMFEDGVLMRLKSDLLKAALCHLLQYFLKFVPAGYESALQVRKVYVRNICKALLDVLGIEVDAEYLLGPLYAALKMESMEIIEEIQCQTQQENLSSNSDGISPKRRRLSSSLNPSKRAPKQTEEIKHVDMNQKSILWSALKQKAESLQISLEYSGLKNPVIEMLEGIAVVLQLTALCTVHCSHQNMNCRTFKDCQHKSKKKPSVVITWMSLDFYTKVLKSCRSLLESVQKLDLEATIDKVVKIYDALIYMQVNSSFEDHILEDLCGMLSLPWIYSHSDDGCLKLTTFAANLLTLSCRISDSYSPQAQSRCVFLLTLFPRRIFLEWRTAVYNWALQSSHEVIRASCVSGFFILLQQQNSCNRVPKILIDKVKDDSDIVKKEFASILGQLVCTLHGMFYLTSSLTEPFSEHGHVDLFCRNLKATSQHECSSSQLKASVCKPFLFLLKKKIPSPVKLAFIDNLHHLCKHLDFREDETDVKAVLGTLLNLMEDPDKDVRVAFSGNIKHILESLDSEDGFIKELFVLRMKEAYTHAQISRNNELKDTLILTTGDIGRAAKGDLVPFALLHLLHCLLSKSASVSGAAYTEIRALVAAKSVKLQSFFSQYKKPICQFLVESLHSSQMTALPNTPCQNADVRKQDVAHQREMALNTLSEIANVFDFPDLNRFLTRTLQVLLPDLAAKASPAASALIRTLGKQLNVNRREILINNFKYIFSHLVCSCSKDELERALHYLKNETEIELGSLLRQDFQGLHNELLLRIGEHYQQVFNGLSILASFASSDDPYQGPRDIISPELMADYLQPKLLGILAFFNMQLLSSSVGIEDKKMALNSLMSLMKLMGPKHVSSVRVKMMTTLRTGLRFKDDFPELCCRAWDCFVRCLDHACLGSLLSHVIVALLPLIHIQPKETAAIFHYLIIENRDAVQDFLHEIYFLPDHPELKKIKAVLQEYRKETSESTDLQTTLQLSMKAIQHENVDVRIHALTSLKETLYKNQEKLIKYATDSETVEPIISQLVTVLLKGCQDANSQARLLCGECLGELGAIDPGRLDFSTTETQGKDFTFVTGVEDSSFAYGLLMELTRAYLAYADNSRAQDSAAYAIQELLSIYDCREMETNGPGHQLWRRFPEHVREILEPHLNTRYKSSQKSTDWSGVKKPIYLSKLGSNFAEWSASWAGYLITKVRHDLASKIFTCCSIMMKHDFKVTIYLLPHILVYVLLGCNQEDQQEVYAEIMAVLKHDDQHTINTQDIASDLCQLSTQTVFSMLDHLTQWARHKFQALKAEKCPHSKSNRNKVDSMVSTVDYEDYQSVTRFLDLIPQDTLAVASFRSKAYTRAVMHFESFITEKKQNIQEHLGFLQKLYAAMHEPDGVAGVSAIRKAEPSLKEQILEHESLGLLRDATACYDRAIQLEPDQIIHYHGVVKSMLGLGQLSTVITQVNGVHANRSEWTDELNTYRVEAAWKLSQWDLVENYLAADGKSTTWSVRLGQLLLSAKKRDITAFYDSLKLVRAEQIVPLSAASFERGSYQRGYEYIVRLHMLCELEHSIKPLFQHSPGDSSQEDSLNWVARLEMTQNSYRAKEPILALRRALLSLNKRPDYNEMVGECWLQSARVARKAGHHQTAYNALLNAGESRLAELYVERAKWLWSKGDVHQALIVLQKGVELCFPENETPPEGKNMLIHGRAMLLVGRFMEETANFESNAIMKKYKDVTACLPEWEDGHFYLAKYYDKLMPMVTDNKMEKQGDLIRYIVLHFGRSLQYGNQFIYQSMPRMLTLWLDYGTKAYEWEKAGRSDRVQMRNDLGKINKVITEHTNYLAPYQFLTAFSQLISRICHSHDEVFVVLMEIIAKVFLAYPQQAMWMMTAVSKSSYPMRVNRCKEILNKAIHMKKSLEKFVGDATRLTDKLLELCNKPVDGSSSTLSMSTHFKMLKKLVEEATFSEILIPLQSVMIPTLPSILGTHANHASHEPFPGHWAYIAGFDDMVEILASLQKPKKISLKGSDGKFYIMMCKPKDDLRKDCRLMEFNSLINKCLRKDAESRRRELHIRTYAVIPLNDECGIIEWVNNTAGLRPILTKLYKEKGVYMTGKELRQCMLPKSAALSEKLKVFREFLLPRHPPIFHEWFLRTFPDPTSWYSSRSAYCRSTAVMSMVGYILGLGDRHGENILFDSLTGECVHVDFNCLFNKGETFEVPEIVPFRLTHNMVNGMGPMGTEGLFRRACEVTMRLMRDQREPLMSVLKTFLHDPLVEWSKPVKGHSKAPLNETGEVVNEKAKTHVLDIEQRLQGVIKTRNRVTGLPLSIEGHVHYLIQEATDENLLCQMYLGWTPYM", "settings": "ATR/ATRIP(h), read-out: Inhibition rate (%)", "summary_of_the_method": "as §1"}, "[5]": {"molecular_target": "T5, 380 human recombinant protein kinases (Homo sapiens, UniProt Q00526)", "T5 construct": "purchased Eurofins (Celle Lévescault)", "settings": "CDK3/cyclinE(h), read-out: Inhibition rate", "summary_of_the_method": "as §1"}, "[6]": {"molecular_target": "T6, 380 human recombinant protein kinases (Homo sapiens, UniProt Q07912)", "T6 construct": "purchased Eurofins (Celle Lévescault)", "T6 sequence (Q07912 whole entry)": "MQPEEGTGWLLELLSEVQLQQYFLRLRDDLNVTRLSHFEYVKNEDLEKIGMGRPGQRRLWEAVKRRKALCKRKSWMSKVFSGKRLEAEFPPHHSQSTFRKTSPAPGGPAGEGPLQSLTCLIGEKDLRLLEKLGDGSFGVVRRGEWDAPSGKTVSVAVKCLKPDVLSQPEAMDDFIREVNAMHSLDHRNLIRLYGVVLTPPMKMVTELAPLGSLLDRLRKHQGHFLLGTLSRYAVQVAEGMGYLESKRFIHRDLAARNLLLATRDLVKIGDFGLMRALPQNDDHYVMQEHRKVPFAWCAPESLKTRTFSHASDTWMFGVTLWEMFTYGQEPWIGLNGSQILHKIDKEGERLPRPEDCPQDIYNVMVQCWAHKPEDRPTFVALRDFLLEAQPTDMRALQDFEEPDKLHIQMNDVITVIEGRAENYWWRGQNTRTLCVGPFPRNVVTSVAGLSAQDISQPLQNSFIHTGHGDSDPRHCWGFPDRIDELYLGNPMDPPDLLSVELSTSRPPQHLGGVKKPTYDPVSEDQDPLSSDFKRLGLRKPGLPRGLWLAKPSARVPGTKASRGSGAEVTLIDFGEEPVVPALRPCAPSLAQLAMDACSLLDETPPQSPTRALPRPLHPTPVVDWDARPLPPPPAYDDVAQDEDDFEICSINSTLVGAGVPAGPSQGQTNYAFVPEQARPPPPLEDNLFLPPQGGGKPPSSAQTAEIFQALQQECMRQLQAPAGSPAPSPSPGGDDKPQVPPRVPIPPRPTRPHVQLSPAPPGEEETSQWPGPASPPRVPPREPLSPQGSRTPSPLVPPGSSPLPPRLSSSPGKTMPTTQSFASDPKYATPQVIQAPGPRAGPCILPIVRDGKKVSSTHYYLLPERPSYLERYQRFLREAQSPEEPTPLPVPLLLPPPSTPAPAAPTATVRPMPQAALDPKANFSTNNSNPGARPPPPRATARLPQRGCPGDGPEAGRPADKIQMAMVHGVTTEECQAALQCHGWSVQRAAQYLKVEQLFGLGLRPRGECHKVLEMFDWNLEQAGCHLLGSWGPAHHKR", "settings": "ACK1(h), read-out: Inhibition rate", "summary_of_the_method": "as §1"}, "[7]": {"molecular_target": "T7, 380 human recombinant protein kinases (Homo sapiens, UniProt P78362)", "T7 construct": "purchased Eurofins (Celle Lévescault)", "T7 sequence (P78362 whole entry)": "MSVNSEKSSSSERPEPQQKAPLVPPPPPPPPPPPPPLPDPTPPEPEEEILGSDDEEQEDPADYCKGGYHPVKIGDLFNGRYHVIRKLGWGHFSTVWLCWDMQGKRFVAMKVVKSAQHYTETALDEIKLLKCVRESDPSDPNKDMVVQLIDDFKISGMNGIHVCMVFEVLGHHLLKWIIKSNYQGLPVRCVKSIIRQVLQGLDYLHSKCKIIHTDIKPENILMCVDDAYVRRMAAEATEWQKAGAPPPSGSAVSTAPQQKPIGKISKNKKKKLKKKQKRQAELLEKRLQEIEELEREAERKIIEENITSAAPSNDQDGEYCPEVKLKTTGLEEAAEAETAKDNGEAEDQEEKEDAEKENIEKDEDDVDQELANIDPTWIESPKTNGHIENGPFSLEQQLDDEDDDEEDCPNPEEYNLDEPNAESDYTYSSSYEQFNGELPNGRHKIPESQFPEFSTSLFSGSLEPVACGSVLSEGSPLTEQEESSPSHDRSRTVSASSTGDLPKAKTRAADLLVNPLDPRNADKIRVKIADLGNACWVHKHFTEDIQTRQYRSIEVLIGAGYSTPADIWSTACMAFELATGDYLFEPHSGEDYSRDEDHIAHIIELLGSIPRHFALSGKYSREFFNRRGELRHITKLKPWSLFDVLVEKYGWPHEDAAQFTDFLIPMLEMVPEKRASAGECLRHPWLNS", "settings": "SRPK2(h), read-out: Inhibition rate (%)", "summary_of_the_method": "as §1"}, "[8]": {"molecular_target": "T8, 380 human recombinant protein kinases (Homo sapiens, UniProt Q06418)", "T8 construct": "purchased Eurofins (Celle Lévescault)", "T8 sequence (Q06418 41-890)": "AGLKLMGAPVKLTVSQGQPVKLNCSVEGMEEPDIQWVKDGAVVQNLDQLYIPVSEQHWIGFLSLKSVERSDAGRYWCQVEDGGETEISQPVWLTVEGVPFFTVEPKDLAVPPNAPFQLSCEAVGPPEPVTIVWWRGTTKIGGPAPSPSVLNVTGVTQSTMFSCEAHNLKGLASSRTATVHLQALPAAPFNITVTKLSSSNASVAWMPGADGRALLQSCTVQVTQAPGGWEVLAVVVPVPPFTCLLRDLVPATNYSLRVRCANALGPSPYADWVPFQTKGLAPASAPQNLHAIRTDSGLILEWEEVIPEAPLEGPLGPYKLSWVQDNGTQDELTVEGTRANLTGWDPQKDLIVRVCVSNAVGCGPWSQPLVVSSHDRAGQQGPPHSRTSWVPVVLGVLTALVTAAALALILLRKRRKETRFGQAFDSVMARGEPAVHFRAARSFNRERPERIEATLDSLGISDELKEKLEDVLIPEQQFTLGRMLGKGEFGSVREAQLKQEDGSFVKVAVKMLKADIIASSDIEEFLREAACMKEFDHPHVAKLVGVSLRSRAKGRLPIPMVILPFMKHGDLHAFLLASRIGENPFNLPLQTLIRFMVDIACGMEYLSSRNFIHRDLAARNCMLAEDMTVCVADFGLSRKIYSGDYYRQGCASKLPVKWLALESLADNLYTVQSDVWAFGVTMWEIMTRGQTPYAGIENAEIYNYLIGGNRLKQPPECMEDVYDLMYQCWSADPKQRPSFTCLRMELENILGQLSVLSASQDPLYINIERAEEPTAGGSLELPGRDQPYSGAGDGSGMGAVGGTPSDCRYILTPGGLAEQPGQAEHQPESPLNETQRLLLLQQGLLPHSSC", "settings": "Rse(h), read-out: Inhibition rate", "summary_of_the_method": "as §1"}, "[9]": {"molecular_target": "T9, 380 human recombinant protein kinases (Homo sapiens, UniProt P07948)", "T9 construct": "purchased Eurofins (Celle Lévescault)", "settings": "Lyn(h), read-out: Inhibition rate", "summary_of_the_method": "as §1"}, "[10]": {"molecular_target": "T10, 380 human recombinant protein kinases (Homo sapiens, UniProt Q9NRH2)", "T10 construct": "purchased Eurofins (Celle Lévescault)", "T10 sequence (Q9NRH2 1-765)": "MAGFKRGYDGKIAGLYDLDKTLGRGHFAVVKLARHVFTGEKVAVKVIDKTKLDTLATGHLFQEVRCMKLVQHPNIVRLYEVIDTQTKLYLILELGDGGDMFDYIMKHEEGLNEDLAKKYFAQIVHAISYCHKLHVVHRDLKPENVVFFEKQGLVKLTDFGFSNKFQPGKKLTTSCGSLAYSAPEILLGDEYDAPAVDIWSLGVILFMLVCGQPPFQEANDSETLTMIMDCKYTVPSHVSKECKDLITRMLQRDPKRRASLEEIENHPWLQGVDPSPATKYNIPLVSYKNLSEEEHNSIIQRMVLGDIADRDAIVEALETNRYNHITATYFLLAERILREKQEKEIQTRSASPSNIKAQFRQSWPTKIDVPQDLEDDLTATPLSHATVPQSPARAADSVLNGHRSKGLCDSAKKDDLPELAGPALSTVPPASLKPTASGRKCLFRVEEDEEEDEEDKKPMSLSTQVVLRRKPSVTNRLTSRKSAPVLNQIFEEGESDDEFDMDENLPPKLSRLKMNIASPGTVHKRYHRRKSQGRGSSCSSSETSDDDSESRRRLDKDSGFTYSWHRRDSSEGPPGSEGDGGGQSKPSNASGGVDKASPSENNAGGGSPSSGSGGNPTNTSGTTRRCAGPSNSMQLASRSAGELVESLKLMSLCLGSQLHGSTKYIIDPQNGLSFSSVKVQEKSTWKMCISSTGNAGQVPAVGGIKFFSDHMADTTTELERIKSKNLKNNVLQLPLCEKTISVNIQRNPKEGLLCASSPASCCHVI", "settings": "SNRK(h), read-out: Inhibition rate (%)", "summary_of_the_method": "as §1"}}, "data": [{"molecule": "C=CC(=O)Nc1cc(-c2cc(-c3cc4c([nH]3)CCNC4=O)ccn2)ccc1OC(F)(F)F", "note": "[compound 11]", "values": [{"measurement": "inhibition at 0.01 µM", "setting": "[1]; 10 nM", "value": -7, "unit": "%"}, {"measurement": "inhibition at 0.1 µM", "setting": "[1]; 100 nM", "value": 12, "unit": "%"}, {"measurement": "inhibition at 1 µM", "setting": "[1]; 1000 nM", "value": 70, "unit": "%"}, {"measurement": "inhibition at 0.01 µM", "setting": "[2]; 10 nM", "value": 0, "unit": "%"}, {"measurement": "inhibition at 0.1 µM", "setting": "[2]; 100 nM", "value": 14, "unit": "%"}, {"measurement": "inhibition at 1 µM", "setting": "[2]; 1000 nM", "value": 56, "unit": "%"}, {"measurement": "inhibition at 0.01 µM", "setting": "[3]; 10 nM", "value": -11, "unit": "%"}, {"measurement": "inhibition at 0.1 µM", "setting": "[3]; 100 nM", "value": 2, "unit": "%"}, {"measurement": "inhibition at 1 µM", "setting": "[3]; 1000 nM", "value": 6, "unit": "%"}, {"measurement": "inhibition at 0.01 µM", "setting": "[4]; 10 nM", "value": -15, "unit": "%"}, {"measurement": "inhibition at 0.1 µM", "setting": "[4]; 100 nM", "value": -17, "unit": "%"}, {"measurement": "inhibition at 1 µM", "setting": "[4]; 1000 nM", "value": -20, "unit": "%"}, {"measurement": "inhibition at 0.01 µM", "setting": "[5]; 10 nM", "value": -5, "unit": "%"}, {"measurement": "inhibition at 0.1 µM", "setting": "[5]; 100 nM", "value": -1, "unit": "%"}, {"measurement": "inhibition at 1 µM", "setting": "[5]; 1000 nM", "value": 0, "unit": "%"}, {"measurement": "inhibition at 0.01 µM", "setting": "[6]; 10 nM", "value": 1, "unit": "%"}, {"measurement": "inhibition at 0.1 µM", "setting": "[6]; 100 nM", "value": 2, "unit": "%"}, {"measurement": "inhibition at 1 µM", "setting": "[6]; 1000 nM", "value": 3, "unit": "%"}, {"measurement": "inhibition at 0.01 µM", "setting": "[7]; 10 nM", "value": 7, "unit": "%"}, {"measurement": "inhibition at 0.1 µM", "setting": "[7]; 100 nM", "value": -1, "unit": "%"}, {"measurement": "inhibition at 1 µM", "setting": "[7]; 1000 nM", "value": 6, "unit": "%"}, {"measurement": "inhibition at 0.01 µM", "setting": "[8]; 10 nM", "value": 7, "unit": "%"}, {"measurement": "inhibition at 0.1 µM", "setting": "[8]; 100 nM", "value": -3, "unit": "%"}, {"measurement": "inhibition at 1 µM", "setting": "[8]; 1000 nM", "value": -5, "unit": "%"}, {"measurement": "inhibition at 0.01 µM", "setting": "[9]; 10 nM", "value": -1, "unit": "%"}, {"measurement": "inhibition at 0.1 µM", "setting": "[9]; 100 nM", "value": -11, "unit": "%"}, {"measurement": "inhibition at 1 µM", "setting": "[9]; 1000 nM", "value": -11, "unit": "%"}, {"measurement": "inhibition at 0.01 µM", "setting": "[10]; 10 nM", "value": 4, "unit": "%"}, {"measurement": "inhibition at 0.1 µM", "setting": "[10]; 100 nM", "value": 4, "unit": "%"}, {"measurement": "inhibition at 1 µM", "setting": "[10]; 1000 nM", "value": 9, "unit": "%"}]}]}
